Experimental data published in patent publication US20210221777A1, “NOVEL COMPOUNDS RELATED TO MY[…] METHODS OF TREATING CANCER” (priority 2020, published 2021).
Read-outs that look alike come from different tables or passages of the source.

Tests used:
[1] = Shelf life / preservation studies (1H NMR)
Source text: Our final approach reinvestigating 1 involved exploring the relevance of the C(8)-OH stereocenter and labile C-14/C-19 diene system for their SAR significance related to the cytotoxicity of 1 against tumor cell lines.

[2] = system: hypoxia-induced factor (HIF-1) signaling in T47D breast tumor cells; conditions: cited from earlier work; for IC50: hypoxia-induced, read-out: IC50 against HIF-1 signaling
[3] = system: pancreatic (PANC-1) tumor cell lines; assay: Cytotoxicity vs. PANC-1 tumor cell line
[4] = system: pancreatic (PANC-1), liver (HepG2), and colon (HCT-116) tumor cell lines; assay: Cytotoxicity of fresh 1, summary over PANC-1, HepG2 and HCT-116; format: cell-based
[5] = Sample storage degradation experiments a-e followed by LCMS; format: physicochemical; conditions: 24 hrs
Source text: Recent work in our laboratory using HPLC during the scale up isolation of mycothiazole (1) hinted that mycothiazole-4,19-diol (7)^6 may also be an artifact of isolation encountered during routine purification of degraded 1. To test this hypothesis, we subjected freshly purified 1 to a variety of sample storage experimental conditions (a-e) summarized in Table 2. Analytical (LCMS) data was used to determine purity outcomes of 1 in terms of its observed degradation which is summarized at the bottom of Table 2 and in FIG. 2. […] Furthermore, the diagnostic MS m/z ion peak (439, [M+H]^+)^6 characteristic of 7 was also observed in samples b-c and e, but not in a or d, as shown in FIG. 2. Selected examples included molecular ion peaks of 421 m/z and 437 m/z. We were unable to pursue full or even partial structure elucidation of these components or the observed 439 m/z ion peak, using NMR studies, due to insufficient material.

[6] = system: colon (HCT-116) tumor cell line; conditions: literature value, may be inaccurate due to compound degradation, read-out: HCT 116 IC50 (Sashidhara et al., 2009); cited from earlier work
[7] = system: human colon tumor (HCT-15) cell lines; conditions: Manta et al., read-out: GI50 against HCT-15; cited from earlier work
solid tumor cell lines = conditions: read-out: cytotoxicity IC50 against a wide variety of solid tumor cell lines; range over literature cell lines; cited from earlier work
[8] = system: colon (HCT-116) tumor cell line; assay: Cytotoxicity vs. HCT 116 tumor cell line; format: cell-based; conditions: this work, ± SEM, N = 2
[9] = read-out: PANC-1 IC50, PANC-1, this work, ± SEM, N = 2
[10] = a) standard protocol: amber vial, Argon, dark desiccator under vacuum
[11] = b) MeOH-O2 (air stream), amber vial, room temp. 22° C.
[12] = c) MeOH-N2 (N2 stream), amber vial, room temp. 22° C.
[13] = d) refrigeration 4° C., amber vial, Argon
[14] = e) direct light (hv), clear vial, 24° C.

8-O-acetyl-mycothiazole [8-O-acetyl-mycothiazole (2)]
time stable in preservation studies using 1H NMR ([1]; stored by standard storage protocol (Table 2a), more stable than 1): ≥ 6 months | IC50 [2]: ~1 nM | IC50 [3, 9]: 1.3 nM

C=CC/C=C\Cc1csc(C(C)(C)C(=O)C/C=C\C(=C)CCNC(=O)OC)n1 [8-Oxo-mycothiazole (8), 8-oxo-mycothiazole]
fold less potent than 1 (cytotoxicity) ([3]; PANC-1, relative to 1): 10,000 times | IC50 [3, 9]: 2000 nM

C=CC/C=C\Cc1csc(C(C)(C)[C@H](O)C/C=C\C(=C)CCNC(=O)OC)n1 [mycothiazole (1), mycothiazole]
increase in potency of fresh 1 versus earlier data ([4]; PANC-1, HepG2, HCT-116): tenfold increase | IC50 ([4]; range over PANC-1, HepG2, HCT-116, read-out: IC50 of fresh 1 across three tumor cell lines): 0.16 to 0.36 nM | analytical LCMS data UV-PDA maximum absorbance units of 1 [5, 10]: 500000 AU | purity outcomes of 1 involving its degradation [5, 10]: minimal degradation | MS-TIC of visible impurity peaks [5, 11]: ~45% relative % relative abundance of m/z io | analytical LCMS data UV-PDA maximum absorbance units of 1 [5, 11]: 500000 AU | purity outcomes of 1 involving its degradation [5, 11]: partial degradation | MS-TIC of visible impurity peaks [5, 12]: ~45% relative % relative abundance of m/z io | analytical LCMS data UV-PDA maximum absorbance units of 1 [5, 12]: 500000 AU | purity outcomes of 1 involving its degradation [5, 12]: partial degradation | MS-TIC of visible impurity peaks [5, 13]: ~20% relative % relative abundance of m/z io | analytical LCMS data UV-PDA maximum absorbance units of 1 [5, 13]: 500000 AU | purity outcomes of 1 involving its degradation [5, 13]: minimal degradation | MS-TIC of visible impurity peaks [5, 14]: ~60% relative % relative abundance of m/z io | analytical LCMS data UV-PDA maximum absorbance units of 1 [5, 14]: 280000 AU | purity outcomes of 1 involving its degradation [5, 14]: severe degradation | shelf life ([1]; pure 1, storage protocols a or d of Table 2): 3-6 weeks | stability on storage ([1]; stored at 4° C.): unstable | IC50 [6]: 3.8 ± 0.24 nM | GI50 [7]: 44 µM | IC50 [2]: ~1 nM | IC50 (solid tumor cell lines): 0.36 to 13.8 nM | IC50 ([3]; Homo sapiens, PANC-1, read-out: PANC-1 IC50): 0.16 nM

C=CC/C=C\Cc1csc(C(C)(C)[C@H](O)C/C=C/C(O)(CO)CCNC(=O)OC)n1 (stereo partly drawn) [mycothiazole-4,19-diol (7), mycothiazole-4,19-diol, reference compound]
IC50 [8]: > 1000 nM | times less potent than 1 or 2 at suppression of hypoxia-induced HIF-1 activation [2]: at least 1000 times
